Measurements published in patent US9730979B2, “Methods for decreasing set in inhibiting protein phosphatase 2A (PP2A) and/or increasing the activity of cyclin-dependent kinase 5 (CDK5) by an APOE peptide” (COGNOSCI, INC., priority 2006, dated 2017).

Columns and labels:
[1] = test system: PP2A; assay: PP2A activity (rate of phosphate release) of PP2A immunoprecipitated from treated RAW cells; format: cell-based, mouse; conditions: 10 nM okadaic acid alone, 1 hour
Protocol: Mouse macrophagic RAW cells were incubated with either 100 ng/mL LPS, 1 μM COG 112 (COG 133 conjugated to antennapedia), LPS and COG 112, 10 nM okadaic acid (an inhibitor of PP2A), or okadaic acid and COG 112. After 1 hour, cells were lysed and PP2A was immunoprecipitated by adding an antibody targeted to the catalytic C-subunit of PP2A. Half of the immunoprecipitate was separated by SDS-PAGE, blotted on to nitrocellulose, and probed with an anti-PP2AC antibody. The remaining portion was assayed for activity by adding 125 μL assay cocktail containing a phospho-threonine substrate peptide to the immunoprecipitated enzyme. After incubating at 37° C. with shaking, a 25 μL aliquot was removed and added to an ammonium molybdate solution (Upstate) that chelates free phosphate and changes color upon chelate formation. Aliquots were removed at various time intervals and the amount of free phosphate released from the peptide was determined by comparison to a phosphate standard curve. The rate of phosphate release was determined by linear fit to the time course data and was normalized to the relative PP2A concentration. PP2A activity, measured by the rate of phosphate release, is increased in the presence of COG 112 (FIG. 8), as would be expected if SET inhibition of PP2A was eliminated by binding of COG112 to SET. […]

[2] = test system: tau; assay: Okadaic acid induced phospho-tau (AT-8) in mouse cortex; format: in vivo, C57B1/6 mice
Protocol: C57B1/6 mice were injected intravenously with increasing concentrations of okadaic acid (OA) (calculated by administration of a sufficient quantity of OA to produce the indicated μM concentration in a blood volume of 2 mL). One hour after OA was administered, mice were euthanized by decapitation and the brain removed. The cortex was isolated, flash frozen with liquid nitrogen, ground to a fine powder and an extract made by homogenization of the powder in an extraction buffer containing protease and phosphatase inhibitors. Protein extracts were separated by SDS-PAGE, transferred to nitrocellulose membranes, and probed for phospho-tau using the AT-8 antibody that recognizes phosphorylation of Ser202 and Thr205 of tau. Phospho-tau signals were normalized to signals from GAPDH protein. […] To determine the effect of COG peptides on the phosphorylation status of the tau protein, 5 mg/kg of COG 1410 was administered to the mice by subcutaneous injection 15 minutes prior to OA administration. FIG. 11B depicts the results of this series of experiments.

[3] = test system: c-Jun N-terminal kinase (JNK); assay: LPS-induced phosphorylation of JNK in BV2 microglia, western blot; format: cell-based, mouse; conditions: LPS plus peptide, 30 minutes
Protocol: (§1) Mouse BV2 microglia were incubated with either a negative control, LPS, or LPS and COG 133 (SEQ ID NO: 1) peptide for 30 minutes. Cells were lysed and a clarified extract prepared by centrifugation. Polyacrylamide gels were loaded with 30 μg of extract per lane and run in SDS buffer. […] Membranes were then probed with phospho-specific p38 MAP kinase, MKK 3/6, JNK, ERK, and IκB antibodies. Membranes were developed with Enhanced Chemiluminescence substrates (GE healthcare) and visualized by exposure to film. Membranes were then stripped and reprobed for total p38, JNK, Erk or IκB using non phospho-specific antibodies as previously described. In some experiments, the membranes were probed for GAPDH protein. Densitometry analysis of the western blots was conducted and the signals from phosphorylated p38 MAP kinase were normalized to those from GAPDH. […] PP2A has been reported to bind and dephosphorylate p38 MAP kinase (Sundaresan & Farndale 2002 FEBS Letters 528, 139). Given that COG peptides can increase PP2A activity (Example 5), it is likely that the dephosphorylation of p38 MAP kinase occurs through the activation of PP2A by COG binding to SET.

[4] = test system: NFκB; assay: Nuclear NFκB in LPS-stimulated colonic epithelial cells, gel shift with radiolabeled oligonucleotide; format: cell-based; conditions: nuclear extracts
Protocol: In the dephosphorylated state, IκB binds to the transcription factor NFκB and prevents it from translocating to the nucleus to activate transcription of pro-inflammatory cytokines. […] A radiolabeled oligonucleotide containing a NFκB binding site was added to the proteins from the nuclear extracts and the proteins were subsequently separated by non-denaturing polyacrylamide gel electrophoresis. The amount of NFκB present in the nuclear extracts was detected by autoradiography (FIG. 10D). Nuclear NFκB was reduced in the presence of COG 133 providing further evidence that this signal transduction cascade is suppressed in cells treated with ApoE peptides.

[5] = test system: BV2 cells; assay: LPS-induced nitric oxide production in BV2 cells with and without siRNA to SET; format: cell-based, mouse; conditions: BV2 cells transfected with siRNA to SET
SET, sequence (Q9EQU5 37-289 limits assumed): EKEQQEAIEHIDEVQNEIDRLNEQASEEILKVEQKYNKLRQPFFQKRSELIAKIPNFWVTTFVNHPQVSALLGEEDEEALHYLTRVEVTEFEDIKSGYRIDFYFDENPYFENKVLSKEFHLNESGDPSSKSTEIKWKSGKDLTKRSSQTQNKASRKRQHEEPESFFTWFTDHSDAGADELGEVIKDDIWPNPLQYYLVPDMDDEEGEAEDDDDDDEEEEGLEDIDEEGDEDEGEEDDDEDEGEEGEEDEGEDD
Protocol: See PCT application PCT/US05/31431 which claims priority to U.S. Provisional Applications 60/606,506, filed Sep. 2, 2004, 60/608,148, filed Sep. 9, 2004, and 60/606,507, filed Sep. 2, 2004 which are herein incorporated by reference in their entireties. BV2 cells were transfected with siRNA to SET. BV2 cells transfected with the siRNA and BV2 cells not transfected with the siRNA were treated with COG 133, LPS, or LPS and COG 133 as described in the above-referenced patent applications. Untreated BV2 cells were used as a control. FIG. 3 is a graph of the results. Bars three and seven correspond to LPS without siRNA to SET and with siRNA to SET, respectively. […] Similarly, there is a reduction in nitric oxide in the group treated with LPS and COG 133 and transfected with siRNA to SET compared to the group treated with LPS and COG 133 and not transfected with siRNA (lanes 8 and 4, respectively).

[6] = test system: BV2 cells; conditions: without siRNA; previously shown; cited from earlier work
[7] = target: T1, SET bound to P35 (Homo sapiens, UniProt Q01105); assay: Co-precipitation of SET with immunoprecipitated p35 from human brain lysate; format: binding; conditions: 50 μM peptide, SET normalized to P35
T1 construct: from tissue; host or cells: human brain lysate
T1 sequence (Q01105 2-290 limits assumed): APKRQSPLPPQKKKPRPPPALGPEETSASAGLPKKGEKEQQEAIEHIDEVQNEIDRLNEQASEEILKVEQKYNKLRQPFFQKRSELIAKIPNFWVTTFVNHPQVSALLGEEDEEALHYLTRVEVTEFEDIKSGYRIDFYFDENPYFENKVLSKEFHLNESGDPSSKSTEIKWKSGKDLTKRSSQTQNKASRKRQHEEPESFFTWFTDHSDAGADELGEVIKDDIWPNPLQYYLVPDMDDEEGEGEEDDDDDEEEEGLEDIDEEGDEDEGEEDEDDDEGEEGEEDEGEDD
Protocol: (§2) FIG. 13. Human brain lysate was incubated with 50 μM of each of the peptides indicated. P35 was subsequently immunoprecipitated from 1 mg of the peptide-treated lysate. Western blots were performed to measure co-precipitation of SET protein (left panel). […] Signals from SET were normalized to signals for P35 protein.
(§3) Cdk5 requires the activator protein p35 for kinase activity. Although cdk5 is ubiquitously expressed, p35 expression is restricted to neurons of the central nervous system, thus limiting cdk5 associated kinase activity to these neurons. Cleavage of p35 to p25 disregulates cdk5 kinase activity causing the kinase to become constitutively active. Constitutive kinase activity of cdk5/p25 has been implicated in the aberrant hyperphosphorylation of tau protein and subsequent neurodegeneration found in Alzheimer's disease and other tauopathies. […] Therefore, it may be possible to reduce cdk5 kinase activity by interfering with the interaction between SET and the cdk5/p35 complex. To test this possibility, the effects of COG peptides on the binding of SET to p35 were examined. Mouse brain lysates (FIG. 12) or human brain lysates (FIG. 13) were incubated with 50 μM of COG 056 (reverse sequence of COG133), COG 112, COG133, or COG 1410. Activator protein p35 was immunoprecipitated with an anti-p35 antibody and protein A agarose beads from 1 mg of the peptide-treated brain lysates. […]

[8] = test system: extracellular regulated kinase (ERK) 1/2; assay: LPS-induced phosphorylation of ERK 1/2 in BV2 microglia, western blot; format: cell-based, mouse; conditions: LPS plus peptide, 30 minutes
Protocol: as §1

[9] = test system: human THP1 cells; assay: LPS-induced TNFα production in human THP1 cells with and without siRNA to SET; format: cell-based; conditions: SET removed by siRNA-based silencing
Source text: Consistent with the mechanism of SET as an inhibitor of Protein Phosphatase 2A (PP2A), a reduction of the LPS-induced TNF response as well as elimination of the effect of COG 133 was observed when SET was removed from the cells.

[10] = test system: IκB; assay: LPS-induced phosphorylation of IκB in BV2 microglia, western blot; format: cell-based, mouse; conditions: LPS plus peptide, 30 minutes
Protocol: as §1

[11] = test system: p38 MAP kinase; assay: LPS-induced phosphorylation of p38 MAP kinase in BV2 microglia, western blot; format: cell-based, mouse; conditions: LPS plus peptide, 30 minutes, normalized to GAPDH
Protocol: as §1

[12] = target: T2, SET from human brain (Homo sapiens, UniProt Q01105); assay: Biotinylated COG 133 pull-down of SET from human brain extract, competition with excess peptide; format: binding
T2 construct: pulls down SET from human brain extracts; from tissue; host or cells: human brain homogenate
T2 sequence (Q01105 whole entry): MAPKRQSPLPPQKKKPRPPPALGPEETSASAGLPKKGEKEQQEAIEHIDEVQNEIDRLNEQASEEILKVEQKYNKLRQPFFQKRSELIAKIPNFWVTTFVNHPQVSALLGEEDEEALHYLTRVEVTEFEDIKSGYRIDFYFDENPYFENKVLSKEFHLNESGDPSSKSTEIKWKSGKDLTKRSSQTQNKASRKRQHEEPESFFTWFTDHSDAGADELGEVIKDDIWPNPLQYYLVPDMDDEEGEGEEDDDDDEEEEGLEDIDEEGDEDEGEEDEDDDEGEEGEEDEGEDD
Protocol: Human brain was homogenized in PBS buffer with a protease cocktail tablet and centrifuged to remove cellular debris. 100 ng of biotinylated COG 133 (COG 133 peptide with biotin attached to the N-terminus) was added to 1 mg of clarified supernatant. After 4 hours of incubation at room temperature, 50 μL of a 50% slurry of streptavidin agarose beads were added. After an additional hour of incubation, the beads were pelleted by centrifugation. The beads were washed 3 times with PBS buffer containing 0.1% tween 20 detergent. 50 μL of a 2×SDS PAGE loading buffer (containing DTT) were added to the washed beads and the samples were boiled for 2 minutes. Polyacrylamide gels were loaded with either 40 μL of extract per lane or 10 μg of total brain extract protein (control lane) and run in SDS buffer. […] Membranes were then probed with an anti-SET antibody. Blots were developed with Enhanced Chemiluminescence substrates (GE healthcare) and visualized by exposure to film.
In a related experiment, derivatives of the COG 133 peptide were tested for SET binding. Human brain extracts were prepared as described above. A 10-fold excess of COG 1410 or COG 112 peptide was added to the brain extract and incubated for 10 minutes. Next, 100 ng of biotinylated COG 133 was added to the extract and incubated for four hours at room temperature. […]

[13] = test system: SET
Protocol: COG 133-biotin or a biotin control was added to total protein from BV2 microglial cells. Proteins binding to Cog-biotin or biotin were collected by immunoprecipitation with streptavidin beads. Beads were extensively washed to remove non-specifically bound proteins. Proteins specifically bound to the streptavidin were eluted and denatured with laemmli sample buffer and run on an SDS/PAGE gel. After electrophoresis, the gel was stained by coomassie/silver stain to visualize protein bands.
Silver stained bands containing the COG 133-binding protein were excised from the gel, and protein was extracted from the gel slices, digested with a protease like trypsin, and the proteolytic fragments analyzed by mass spectrometry. The sequence of selected proteolytic fragments was accomplished by the MS/MS method. The sequences of the proteolytic fragments and their molecular weights were compared against amino acid sequences and molecular weights of known sequences in the NCBI GenBank by methods known in the art.
BV2 microglial cells were cultured and contacted with biotin labeled COG 133. Total protein extracts were prepared from treated BV2 cells and biotin-containing complexes isolated with streptavidin-agarose beads. After washing of beads, proteins were eluted by boiling in Laemmli sample buffer and denatured proteins were separated on a SDS-PAGE gel. […]

[14] = target: T3, SET bound to P35 (Mus musculus, UniProt Q9EQU5); assay: Co-precipitation of SET with immunoprecipitated p35 from mouse brain lysate; format: binding; conditions: 50 μM peptide, SET normalized to P35
T3 construct: from tissue; host or cells: mouse brain lysate
T3 sequence (Q9EQU5 2-289 limits assumed): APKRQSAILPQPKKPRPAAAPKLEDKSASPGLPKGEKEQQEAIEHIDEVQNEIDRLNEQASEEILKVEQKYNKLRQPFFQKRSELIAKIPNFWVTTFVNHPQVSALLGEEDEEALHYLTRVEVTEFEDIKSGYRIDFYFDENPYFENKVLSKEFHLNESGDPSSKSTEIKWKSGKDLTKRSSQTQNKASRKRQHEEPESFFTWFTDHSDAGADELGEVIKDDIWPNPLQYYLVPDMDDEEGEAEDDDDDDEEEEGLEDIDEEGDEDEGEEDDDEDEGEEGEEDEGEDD
Protocol: as §2, with “12. Mouse” for “13. Human”, “protein. Results with COG 133 are not shown and were inconclusive possibly due to unequal protein loading.” for “protein.”
as §3, with “1410.” for “1410. Activator protein p35 was immunoprecipitated with an anti-p35 antibody and protein A agarose beads from 1 mg of the peptide-treated brain lysates.”

[15] = relative to COG 133; cited from earlier work

## C=C1[C@@H](O)[C@@H]2O[C@]3(CC[C@H](/C=C/[C@@H](C)[C@@H]4CC(C)=C[C@@]5(O[C@H](C[C@@](C)(O)C(=O)O)CC[C@H]5O)O4)O3)CC[C@H]2O[C@@H]1[C@@H](O)C[C@H](C)[C@H]1O[C@@]2(CCCCO2)CC[C@H]1C [okadaic acid, reference compound]
[1]
  baseline PP2A activity: decrease in baseline PP2A activity
[2]; okadaic acid intravenously, increasing concentrations, one hour, normalized to GAPDH
  phospho-tau in the cortex: concentration-dependent increase

## LRVRLASHLRKLRKRLL [COG 133]
[3]
  LPS-induced phosphorylation of JNK: reduces the LPS-induced phosphorylation
[4]
  nuclear NFκB: reduced
[5]
  nitric oxide, LPS+COG 133+siRNA versus LPS+siRNA: not a significant difference
[6]
  LPS-induced nitric oxide production: reduce LPS-induced nitric oxide production
[7]
  amount of SET bound to P35: reduce the amount of SET bound to P35
[8]
  LPS-induced phosphorylation of ERK: reduces the LPS-induced phosphorylation
[9]
  effect in reducing LPS-induced TNFα production: eliminated
[10]
  LPS-induced phosphorylation of IκB: reduces the LPS-induced phosphorylation
[11]
  phosphorylation of p38 MAP kinase: decrease in phosphorylation

## biotinylated COG 133 [reference compound]
[12]; 100 ng peptide in 1 mg human brain supernatant, streptavidin pull-down
  binding to SET: binds to and pulls down SET
[13]
  binding to SET: uniquely bind

## Ac-AS-Aib-LRKL-Aib-KRLL-NH2 [COG 1410]
[14]
  amount of SET bound to P35: reduce the amount of SET bound to P35
[12]; 10-fold excess of competitor peptide, human brain extract
  SET protein pulled down with biotinylated COG 133: reduces the amount of SET protein pulled down
[13]; BV2 cells, anti-SET western blot
  competition with biotinylated COG 133 for binding to SET: competes with COG 133 in binding to SET
[7]
  amount of SET bound to P35: reduce the amount of SET bound to P35
[15]
  gain in therapeutic window as compared to COG 133: 4 fold
[2]; mouse, in vivo
  phosphorylated tau protein induced by OA: reduced the amount of phosphorylated tau protein
